Where “and” joins values, the source holds several entries; their conditions need not be identical. Equal values may be shown once.
How the values were obtained:
[1] = Population pharmacokinetics (popPK) model for orismilast; parameters: species or system human
Procedure: All subjects were treated with orismilast as IR capsule, IR solution, IR tablet or MR tablet with available PK samples. Although the modified release tablet was the formulation selected for further studies, the popPK model was also built using the immediate release formulations (IR solution, IR tablet and IR capsule), especially to obtain stable estimates of elimination parameters (clearances) across formulations and obtain a robust model to support the simulation.
PopPK parameters were estimated by non-linear mixed effect modelling using MONOLIX. Mixed effects models describe the influence of both fixed effects and random effects. The random effects are typically used to capture the variability which can be split in residual variability (error) and between-subject variability.
The population model was defined by 4 components: • 1. The structural popPK model components, which defines the PK parameters and describe the plasma concentration-time profiles of orismilast. • 2. The inter-individual random effect model component, which describes the inter-individual variation (IIV) and inter-occasion variation (IOV) in PK parameters after correction for fixed effects. • 3. The residual error (or random effect) model component, which describes the underlying distribution of the error in the measured concentrations. • 4. The covariate model component, which describes the influence of fixed effects (i.e., demographic factors) on PK parameters.
The search for the final model followed the following stepwise strategy: • 1. Selection of the simplest structural model, which predicts the plasma concentration as a function of time and dose, based on smallest objective function (OF) and by the pattern in the residual plots. The best structural model, the most appropriate.IIV and IOV models, and the residual error model, were identified. The structural model was determined using the rich Phase I data from healthy volunteers (LP0058-S01, LP0058-1005, LP0058-1114, LP0058-1362, LP0058-1324 and LP0058-1442). • 2. Preliminary visual check using predictive check approach was applied to sparse data from psoriasis patients (study LP0058-1072) to assess the predictability capacities of the structural model for patient data. • 3. Psoriasis patient data were included in the model and the model was refined or adjusted if necessary. • 4. Graphical exploration of the covariates: between individual covariates and EBE of parameter or random effects. • 5. Determination of the covariate model. • 6. Selection of significant covariates to obtain the FINAL model. • 7. Inclusion of new studies in the model (e.g. UN1500001-203 and CIB1353A101) was performed by repeating steps 2 to 6.
The pre-specified covariates that were suspected a priori of having an influence on PK parameters, were included in the full model and the selection of the final model with relevant covariates were based on the statistical Wald test (keep covariates with p-value <0.05). The influence of body weight on PK parameters was included using fixed standard allometric scales.
The model was evaluated using diagnostic and goodness of fit plots and validated using Visual Predictive Checks. SAS® software V9.4 and Monolix Suite version 2021R1 release were used.
The structural model was parameterised in terms of apparent clearance (CL/F), volume of distribution of central compartment (V1/F), inter-compartmental clearance (Q/F) and volume of distribution for peripheral compartment (V2/F). The absorption was described by a 1st—order rate constant (ka1) for first absorption process, 1st—order rate constant (ka2) for second absorption process, fraction of dose absorbed through the first process (F1) and lag time (tlag2) for the start of the second phase. The relative bioavailability was also added to characterize the difference between the formulations, it was set to 1 for the IR solution, so, the other formulations were expressed relatively to the IR solution. […]

[2] = system: TARC and other inflammatory markers in atopic dermatitis skin lesions; test: Skin tape strip biomarkers (OLINK FLEX panel) in the phase 2b atopic dermatitis study (Example 11); assay type: in vivo, human; conditions: all treatment arms (20, 30, 40 mg BID)
Source text: Stratum corneum skin samples were collected at the designated time points using the tape stripping method to evaluate biomarker expression levels. Tape stripping is a minimally invasive, nonscarring approach using serial adhesive films to capture the stratum corneum and the upper part of the granular layer.
At Baseline, before administration of study drug, 1 lesional and 1 non-lesional area were identified, and 20 consecutive skin samples were collected from each area. At Week 16, the same procedure was repeated only from the same lesional areas sampled at Baseline.
Skin tape strip samples were taken from lesional and non-lesional skin at baseline and lesional skin at week 16 of patients participating in the phase 2b, double-blinded, placebo-controlled, dose-finding study (20 mg, 30 mg and 40 mg orismilast modified release tablets BID) in patients with moderate-to-severe atopic dermatitis (NCT05469464) described in Example 8. […] The primary objective of the biomarker study was to evaluate the effect of orismilast on a broad spectrum of inflammatory markers in atopic dermatitis skin lesions using tape strips as a non-invasive sampling technology combined with the Olink® technology (OLINK® FLEX panel) using analogous methods to those described in Example 10.
A linear mixed effect model was used on all patients to estimate Ismeans with standard error and adjusted p value.

CYP3A4 = target: T1, CYP3A4 (Homo sapiens, UniProt P08684); test: CYP3A4 inhibition from clinical studies; assay type: in vivo
T1 construct: from tissue; host or cells: human subjects in vivo (clinical studies); no organ is named
T1 sequence (P08684 whole entry): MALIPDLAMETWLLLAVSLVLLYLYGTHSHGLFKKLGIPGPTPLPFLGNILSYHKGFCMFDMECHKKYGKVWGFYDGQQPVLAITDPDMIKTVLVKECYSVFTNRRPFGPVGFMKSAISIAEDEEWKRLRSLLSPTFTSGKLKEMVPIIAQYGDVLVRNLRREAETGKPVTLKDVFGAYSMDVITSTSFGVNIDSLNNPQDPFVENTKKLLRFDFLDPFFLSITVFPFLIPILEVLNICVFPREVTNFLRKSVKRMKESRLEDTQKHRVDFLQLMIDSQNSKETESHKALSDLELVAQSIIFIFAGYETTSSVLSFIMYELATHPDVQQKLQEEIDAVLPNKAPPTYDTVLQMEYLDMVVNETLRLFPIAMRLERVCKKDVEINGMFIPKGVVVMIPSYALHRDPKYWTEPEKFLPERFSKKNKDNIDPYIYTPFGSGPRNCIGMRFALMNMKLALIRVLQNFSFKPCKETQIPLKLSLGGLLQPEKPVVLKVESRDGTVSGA
Source text: Patients receiving orismilast concurrently with these medicinal • products should be monitored for related AEs, especially if they have a narrow therapeutic window.

CYP2D6 = CYP2D6 (Homo sapiens, UniProt P10635); test: CYP2D6 inhibition in vitro; assay type: in vitro ADME
Chain of CYP2D6 (P10635 whole entry): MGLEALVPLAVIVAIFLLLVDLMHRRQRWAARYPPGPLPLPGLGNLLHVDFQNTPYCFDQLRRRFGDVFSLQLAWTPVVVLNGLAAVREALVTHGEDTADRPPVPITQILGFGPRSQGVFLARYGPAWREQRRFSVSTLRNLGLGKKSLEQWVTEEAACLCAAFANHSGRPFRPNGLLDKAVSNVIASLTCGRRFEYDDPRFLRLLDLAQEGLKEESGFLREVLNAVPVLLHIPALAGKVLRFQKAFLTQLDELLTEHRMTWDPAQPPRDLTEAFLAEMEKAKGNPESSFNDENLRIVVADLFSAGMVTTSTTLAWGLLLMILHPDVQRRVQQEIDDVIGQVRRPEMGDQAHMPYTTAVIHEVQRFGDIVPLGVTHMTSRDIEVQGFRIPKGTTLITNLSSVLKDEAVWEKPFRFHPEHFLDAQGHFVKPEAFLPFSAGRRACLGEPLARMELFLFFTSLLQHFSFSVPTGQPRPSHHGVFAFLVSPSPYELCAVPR
Source text: Concomitant use of orismilast • with other drugs mainly metabolized by the cytochrome CYP2D6 has not been studied clinically.

[3] = system: PDE4B and PDE4D subtype splice variants; test: PDE4 inhibition in vitro; assay type: biochemical
[4] = Chinese healthy volunteer study CIB1353A101: PK; conditions: human, in vivo, oral; CIBI3S3A101 (D1 = 10 mg); N 18; read-out: AUClast, NCA GM (CV %)

O=C(Cc1c(Cl)c[n+]([O-])cc1Cl)c1ccc(OC(F)F)c2c1OC1(CCS(=O)(=O)CC1)O2 [orismilast, 2-(3,5-dichloro-1-oxidopyridin-1-ium-4-yl)-1-[7-(difluoromethoxy)-1′,1′-dioxospiro[1,3-benzodioxole-2,4′-thiane]-4-yl]ethanone]
variability of the central PK parameters [1]: 27% and 34%
AUClast GM ratio (popPK/NCA) ([1]; 1442 - Part 1 (MR, 30 mg)): 1.03
AUClast GM ratio (popPK/NCA) ([1]; 1442 - Part 2 (Fast, 30 mg)): 1.14
AUClast GM ratio (popPK/NCA) ([1]; 1442 - Part 3 (D1 = 10 mg)): 0.98
AUClast GM ratio (popPK/NCA) ([1]; 1442 - Part 3 (D17 = 60 mg)): 0.97
AUClast GM ratio (popPK/NCA) ([1]; CIBI3S3A101 (D1 = 10 mg)): 0.98
variability of Q/F ([1]; peripheral compartment): 383%
variability of V2/F ([1]; peripheral compartment): 495%
TARC in lesional skin at week 16 of treatment [2]: significant reduction
inhibition of CYP3A4 (CYP3A4): weak inhibitor
inhibition of CYP2D6 (CYP2D6): competitive direct inhibitor
inhibition of the PDE4 isoforms PDE4D3 and PDE4B2 [3]: selective inhibitor
AUC(0-t) [4]: 167 ng·h/mL

— patent US12409172B2, “Dosage regimen” (UNION therapeutics A/S, priority 2023, dated 2025)
